Earlier results, collected in patent publication US20220370511A1, “METHODS AND COMPOSITIONS FOR ENHANCING OVERALL HEALTH AND LONGEVITY IN MAMMALS” (MYOS CORP., priority 2019, published 2022).

Tests used:
[1] = chronic supplementation, healthy middle-aged and older adults
[2] = dose of 300 mg/kg/day
NAD+ metabolism = conditions: chronic supplementation, healthy middle-aged and older adults

In the case of NC(=O)c1ccc[n+]([C@@H]2O[C@H](CO)[C@@H](O)[C@H]2O)c1 [nicotinamide riboside], the tolerability [1] is given as “well tolerated”, the “adverse effects related to nicotinamide riboside” value [2] is given as “absent” and the “stimulation of NAD+ metabolism” value (NAD+ metabolism) is given as “effectively stimulated”.
